# Calls of active or inactive are those of the source.
# Tests used:
# [1] = biological target: T1, Oxysterols receptor LXR-beta (Homo sapiens, UniProt P55055); type: functional, cell-based;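 further: Cell-based luminescence dose-response assay of agonist activity at LXR, run as a confirmatory counterscreen to a daf-12 agonist screen; HEK293 cells with Gal4-LXR fusion and GAL4-driven luciferase reporter; agonist potency from rising luciferase signal of a Gal4-LXR reporter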
# T1 sequence (P55055 whole entry): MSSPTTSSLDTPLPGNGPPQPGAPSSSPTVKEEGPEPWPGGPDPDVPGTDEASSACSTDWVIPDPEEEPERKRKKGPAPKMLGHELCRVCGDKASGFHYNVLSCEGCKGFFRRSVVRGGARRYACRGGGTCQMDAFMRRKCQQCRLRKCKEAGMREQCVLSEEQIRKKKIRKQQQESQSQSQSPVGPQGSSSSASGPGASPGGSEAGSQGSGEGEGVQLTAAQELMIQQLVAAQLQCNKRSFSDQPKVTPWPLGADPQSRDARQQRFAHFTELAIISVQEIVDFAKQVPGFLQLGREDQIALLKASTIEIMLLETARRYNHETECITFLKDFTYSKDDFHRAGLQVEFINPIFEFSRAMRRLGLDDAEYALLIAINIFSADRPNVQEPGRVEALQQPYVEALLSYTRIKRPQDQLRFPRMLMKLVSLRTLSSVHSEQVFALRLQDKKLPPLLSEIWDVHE
# [2] = ATP-based viability loss in HEK293T cells – cell-based, CellTiter-Glo luminescence, dry powder, set 2, cytotoxicity control, dose response (AID 720595); type: functional; details: HEK293
# [3] = inhibitors of TRPM1-promoter reporter in SK-MEL-5 – cell-based, luciferase, dry powder, set 9, MITF inhibitor project, dose response (AID 651588); type: functional
# [4] = cytotoxicity in MITF-independent A375 cells – cell-based, CellTiter-Glo luminescence, dry powder, set 4, counter-screen for MITF inhibitor project, dose response (AID 624364); type: functional; details: A-375;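 further: A375 melanoma cells are MITF independent so this is a counter screen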
# [5] = viability loss in MITF-independent A375 cells – cell-based, CellTiter-Glo luminescence, dry powder, set 7, counter-screen for MITF inhibitor project, dose response (AID 624490); type: functional; details: A-375
# [6] = MITF Orthogonal Assay: MALME3 CTG Assay Measured in Cell-Based System Using Plate Reader - 2084-04_Inhibitor_Dose_DryPowder_Activity_Set6.; type: functional; details: MALME-3
# [7] = growth inhibition of SK-MEL-5 melanoma cells – cell-based, CellTiter-Glo luminescence, dry powder, set 8, orthogonal assay for MITF inhibitor project, dose response (AID 651586); type: functional
# [8] = growth inhibition of MALME3 cells – cell-based, CellTiter-Glo luminescence, dry powder, set 5, orthogonal assay for MITF inhibitor project, dose response (AID 651584); type: functional; details: MALME-3
# [9] = cytotoxicity in melanoma parental cells – cell-based, CellTiter-Glo, dry powder, set 6, MITF inhibitor project, dose response (AID 624429); type: functional; details: SK-MEL-5
# [10] = MITF Orthogonal Assay: SK-MEL-5 CTG Assay Measured in Cell-Based System Using Plate Reader - 2084-02_Inhibitor_Dose_DryPowder_Activity_Set5.; type: functional
# [11] = viability loss in MITF-independent A375 cells – cell-based, CellTiter-Glo luminescence, dry powder, set 6, counter-screen for MITF inhibitor project, dose response (AID 624488); type: functional; details: A-375
# [12] = cytotoxicity in MITF-independent A375 cells – cell-based, CellTiter-Glo luminescence, dry powder, set 9, counter-screen for MITF modulator project, dose response (AID 651591); type: functional; details: A-375
# [13] = MITF Measured in Cell-Based System Using Plate Reader - 2084-01_Inhibitor_Dose_DryPowder_Activity_Set6.; type: functional
# [14] = viability loss in MITF-independent A375 cells – cell-based, CellTiter-Glo luminescence, dry powder, set 2, counter-screen for MITF inhibitor project, dose response (AID 624489); type: functional; details: A-375;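 further: actives are compounds lowering A375 viability meaning general cytotoxicity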
# [15] = MITF Measured in Cell-Based System Using Plate Reader - 2084-01_Inhibitor_Dose_DryPowder_Activity_Set7.; type: functional
# [16] = melanocyte viability loss, MITF-dependent cells, cell-based, plate reader, dry powder, cytotoxicity control, dose response (AID 651920); type: functional
# [17] = viability loss in HEK293T cells – cell-based, CellTiter-Glo luminescence, dry powder, set 6, cytotoxicity control, dose response (AID 651949); type: functional; details: HEK293
# HEK293 = assay: viability loss in HEK293T cells – cell-based, ATP luminescence, cherry-pick samples, cytotoxicity control, dose response (AID 687005); type: functional; details: Homo sapiens;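 further: cells exposed to compound for 48 hours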
# [18] = HEK293 Cytotoxicity Assay Measured in Cell-Based System Using Plate Reader - 7071-01_Inhibitor_Dose_CherryPick_Activity_Set2.; type: functional
# Paired box protein Pax-8 = Paired box protein Pax-8 (Homo sapiens, UniProt Q06710); assay: PAX8 transcriptional activity inhibition in RMG-I – RMG-I cells, luciferase, cherry-pick, dose response (AID 687027); type: functional, cell-based;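 further: luciferase reporter driven by Pax8 target thyroperoxidase promoter measured by SteadyGlo luminescence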
# [19] = A2780 cell killing – plate reader, dry powder samples, cytotoxicity control, dose response (AID 743046); type: functional, cell-based
# [20] = OVCAR-3 cell viability loss – plate reader, dry powder samples, PAX8 inhibitor project, dose response (AID 743044); type: functional, cell-based
# [21] = IGROV1 cell killing – plate reader, dry powder samples, PAX8 inhibitor project, dose response (AID 743043); type: functional, cell-based; details: IGROV-1
# [22] = OVCAR8 cell viability loss – plate reader, dry powder samples, PAX8 project, dose response (AID 743197); type: functional, cell-based; details: OVCAR-8
# [23] = test system: Streptococcus sp. 'group A'; assay: Streptococcus pyogenes SK(-)GAS viability under kanamycin – luminescence, BacTiterGlo, confirmation, counter-screen for streptokinase expression inhibitor project, dose response (AID 1900); type: functional, organism-based
# Streptokinase A = biological target: T2, Streptokinase A (Streptococcus pyogenes serotype M1, UniProt P10520); assay: viability-normalized secreted streptokinase activity reduction – plasminogen activation absorbance, OD405, dose response (AID 1914); type: functional, Streptococcus pyogenes M1 GAS;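 further: secreted streptokinase activity via plasminogen activation per viability signal from cell pellet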
# T2 sequence (P10520 whole entry): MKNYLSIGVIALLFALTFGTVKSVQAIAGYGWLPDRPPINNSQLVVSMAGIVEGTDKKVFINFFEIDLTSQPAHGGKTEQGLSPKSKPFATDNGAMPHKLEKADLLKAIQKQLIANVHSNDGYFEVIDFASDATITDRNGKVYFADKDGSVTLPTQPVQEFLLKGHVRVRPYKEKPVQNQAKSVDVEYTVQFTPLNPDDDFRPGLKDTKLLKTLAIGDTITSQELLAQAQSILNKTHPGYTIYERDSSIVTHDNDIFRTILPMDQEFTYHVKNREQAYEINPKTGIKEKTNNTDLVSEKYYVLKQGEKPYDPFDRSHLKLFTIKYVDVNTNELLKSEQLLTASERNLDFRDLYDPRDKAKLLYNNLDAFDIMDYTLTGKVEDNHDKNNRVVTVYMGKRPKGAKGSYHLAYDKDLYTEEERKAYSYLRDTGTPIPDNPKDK
# Streptococcus = assay: GAS UMAA2166 growth inhibition – luminescence, BacTiterGlo, counter-screen for streptokinase expression inhibitor project, dose response (AID 1915); type: functional, organism-based;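 further: potency for reduction of bacterial viability or growth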
# [24] = Late stage results for the probe development effort to identify inhibitors of Plasmodium falciparum gametocytes: Luminescence-based cell-based high throughput dose response assay to identify inhibitors of viability of late stage Plasmodium falciparum gametocytes.; type: functional
# BJ [25] = assay: BJ-TERT fibroblast viability loss – cell-based, RAS-independent, luminescence, dose response (AID 1933); type: functional; details: Homo sapiens
# BJ [26] = assay: cells; type: functional, cell-based; details: Homo sapiens
# BJ [27] = assay: BJ-TERT-LT-ST fibroblast viability loss – cell-based, RAS-independent, luminescence, dose response (AID 1935); type: functional; details: Homo sapiens;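 further: BJ fibroblasts immortalized with TERT plus LT and ST oncogenes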
# [28] = DRD fibroblast viability loss – cell-based, non-viral oncogenic, luminescence, dose response (AID 1934); type: functional; details: Homo sapiens
# [29] = toxicity toward HEK293 cells – cell-based, dry powder samples, cytotoxicity control, dose response (AID 720567); type: functional
# Paired box protein Pax-8, sequence (Q06710 whole entry): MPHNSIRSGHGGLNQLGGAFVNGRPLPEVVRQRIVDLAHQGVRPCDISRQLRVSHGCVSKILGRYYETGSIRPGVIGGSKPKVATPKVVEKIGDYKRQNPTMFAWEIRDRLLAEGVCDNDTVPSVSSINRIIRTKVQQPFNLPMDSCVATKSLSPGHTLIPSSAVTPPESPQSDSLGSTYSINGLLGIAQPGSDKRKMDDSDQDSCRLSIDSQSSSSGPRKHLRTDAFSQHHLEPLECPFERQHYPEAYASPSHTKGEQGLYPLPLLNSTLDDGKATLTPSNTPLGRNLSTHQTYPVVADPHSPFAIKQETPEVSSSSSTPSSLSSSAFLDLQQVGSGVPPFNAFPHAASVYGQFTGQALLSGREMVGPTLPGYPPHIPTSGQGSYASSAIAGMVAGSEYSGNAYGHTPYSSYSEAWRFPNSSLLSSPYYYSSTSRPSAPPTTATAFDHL
compound,measurement,setting,value
Cc1csc(NC(=O)c2oc3ccccc3c2C)n1,EC50,[1],> 67.6 µM (inactive)
same,EC50,cells,> 67.6 µM (inactive)
CC1CCN(S(=O)(=O)c2ccc(C(=O)Nc3nnc(-c4ccco4)o3)cc2)CC1,AC50,[2],> 52 µM (inactive)
NC1=CC(=O)c2ccccc2C1=O,AC50,[3],12.1 µM (active)
same,AC50,[4],> 70 µM (inactive)
same,AC50,[5],45.7 µM (active)
same,AC50,[6],9.48 µM (active)
same,AC50,[7],8.76 µM (active)
same,AC50,[8],9.48 µM (active)
same,AC50,[9],6.75 µM (active)
same,AC50,[10],5.13 µM (active)
same,AC50,[11],56.9 µM (active)
same,AC50,[12],> 70 µM (inactive)
same,AC50,[13],4.14 µM (active)
same,AC50,[14],65.7 µM (active)
same,AC50,[15],1.28 µM (active)
same,AC50,[16],25.1 µM (active)
COc1ccc(CSc2nnc(-c3ccccc3)o2)cc1,AC50,[17],> 52 µM (inactive)
COc1ccccc1CNC(=O)C[C@@H]1C[C@H]2c3cc(NC(=O)Nc4ccccc4F)ccc3O[C@H]2[C@@H](CO)O1,AC50,HEK293,26.6 µM (active)
same,AC50,[18],26.6 µM (active)
O=C1CN(S(=O)(=O)Cc2ccccc2)C[C@@H]2[C@@H](c3ccc(C#CCC4CCCC4)cc3)[C@@H](CO)N12,AC50,Paired box protein Pax-8,4.58 µM (active)
same,AC50,[19],11.3 µM (active)
same,AC50,[20],4.22 µM (active)
same,AC50,[21],18.8 µM (active)
same,AC50,[22],28.1 µM (active)
O=C(NC1=NCCS1)c1cc(-c2ccccc2)nn1-c1ccccc1,EC50,[23],> 150 µM (not active)
same,EC50,Streptokinase A,34.2 µM (active)
same,EC50,Streptococcus,> 150 µM (not active)
same,IC50,[24],> 37.2 µM (inactive)
C/C(=N\NC(=O)c1c([N+](=O)[O-])c(C)nn1C)c1ccc(NC(=O)C2CCCC2)cc1,EC50,BJ [25],1.02 µM (active)
same,EC50,BJ [26],0.476 µM (active)
same,EC50,BJ [27],0.918 µM (inconclusive)
same,EC50,[28],0.605 µM (active)
same,AC50,[29],12.8 µM (active)
